In patent US20050101595A1, “N-containing cycloalkyl-substituted amino-thiazole derivatives and pharmaceutical compositions for inhibiting cell proliferation and methods for their use” (PFIZER INC., priority 2003, published 2005):
Counter-ions that a name gives are not always drawn. Like-named read-outs stand apart in the source and are kept apart here. One block for each compound: values may come before it.

Key:
[1] = target: CDK2/Cyclin A (Homo sapiens, UniProt P24941); test: Inhibition of CDK2/Cyclin A Retinoblastoma Kinase Activity; type: biochemical; settings: for CDK2 % Inhibition At 0.03 μM: Table 2; for Ki: apparent Ki, CDK2/proteolyzed cyclin A, Rb fragment substrate, 25 μM ATP
Summary of the method: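 Percent inhibition is calculated against DMSO-only wells after subtracting no-enzyme background. The enzyme is human CDK2 complexed with proteolyzed cyclin A, used at 10 nM or 19 nM on an Rb fragment with 25 μM [32/33P]ATP, at pH 7.4 and 30° C.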

[2] = target: human CDK4 and genetically truncated (1-264) cyclin D3 (Homo sapiens, UniProt P11802); test: Inhibition of CDK4/Cyclin D Retinoblastoma Kinase Activity; type: biochemical; settings: for Ki: apparent Ki, CDK4/truncated cyclin D3, Rb fragment substrate, 25 μM ATP
Summary of the method: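 Apparent Ki values derive from fitting activity at varied inhibitor concentrations to a competitive (or competitive tight-binding) model. Kinase reactions used 5 nM CDK4/cyclin D3(1-264), Rb fragment substrate and 25 μM ATP. Incubation ran 20 min at 30 °C, extended to 60 min under linear conditions for tight binders.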

[3] = test system: HCT-116 cell line; test: Inhibition of cell growth, tetrazolium salt (MTT) assay; type: cell-based; settings: for HCT-116 % Inhibition at 0.25 μM: 0.25 μM compound; for IC50: Homo sapiens, HCT-116, 120 h, MTT, three to five days, read-out: HCT-116 IC50
Summary of the method: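 MTT colorimetric viability: three-to-five-day compound exposure in 0.5% (v/v) DMSO at 37° C, MTT 0.2 mg/mL for the last 4 h, A540 compared with vehicle-treated cells.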

[4] = 0.1 μM compound, HCT-116, Table 3
[5] = 0.1 μM compound, HCT-116, Table 4

human CDK4 and genetically truncated (1-264) cyclin D3, sequence (P11802 whole entry, the tested form may be a part): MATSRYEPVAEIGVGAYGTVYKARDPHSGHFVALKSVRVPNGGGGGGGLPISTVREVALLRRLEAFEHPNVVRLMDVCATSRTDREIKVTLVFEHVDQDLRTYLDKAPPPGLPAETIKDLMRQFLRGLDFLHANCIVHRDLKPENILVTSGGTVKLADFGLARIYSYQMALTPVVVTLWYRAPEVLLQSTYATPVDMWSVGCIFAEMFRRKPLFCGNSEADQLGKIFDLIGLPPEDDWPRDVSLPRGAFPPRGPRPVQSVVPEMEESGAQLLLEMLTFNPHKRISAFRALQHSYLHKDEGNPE
human CDK4 and genetically truncated (1-264) cyclin D3, sequence (P30281 1-264 partner): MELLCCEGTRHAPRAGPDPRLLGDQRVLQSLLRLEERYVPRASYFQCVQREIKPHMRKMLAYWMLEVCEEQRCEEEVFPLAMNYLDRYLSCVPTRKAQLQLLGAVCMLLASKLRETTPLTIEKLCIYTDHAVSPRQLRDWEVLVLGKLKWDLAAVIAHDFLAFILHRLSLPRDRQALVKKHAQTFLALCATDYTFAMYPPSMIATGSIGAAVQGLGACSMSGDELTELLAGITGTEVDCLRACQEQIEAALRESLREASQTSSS

Compound: Nc1nc(NC2CCN(S(=O)(=O)c3cccc(C(=O)O)c3)CC2)sc1C(=O)c1c(F)cccc1F [Example P29]
CDK2 % Inhibition at 0.03 μM ([1]; 0.03 μM compound, Table 3): 35%
CDK4 % Inhibition at 0.03 μM ([2]; 0.03 μM compound, Table 3): 56%
HCT-116 % Inhibition at 0.1 μM [3, 4]: 0%
HCT-116 % Inhibition at 0.25 μM ([3]; HCT-116, Table 3): 21%

Compound: CC(NC(=O)N1CCC(Nc2nc(N)c(C(=O)c3c(F)cccc3F)s2)CC1)c1ccccc1 (stereo not drawn) [Example O66]
CDK2 % Inhibition At 0.03 μM ([1]; 0.03 μM compound, 0.03 µM): 32%
CDK4 % Inhibition at 0.03 μM ([2]; 0.03 μM compound, Table 2, 0.03 µM): −1%
HCT-116 % Inhibition at 0.25 μM ([3]; HCT-116, Table 2, 0.25 µM): 36%

Compound: C[C@@H]1CN(c2ccc(S(=O)(=O)N3CCC(Nc4nc(N)c(C(=O)c5c(F)cccc5F)s4)CC3)cc2)C[C@H](C)N1 [Example G29, 1-(4-Amino-2-{1-[4-(3R,5S-dimethyl-piperazin-1-yl)-benzenesulfonyl]-piperidin-4-ylamino}-thiazol-5-yl)-1-(2,6-difluoro-phenyl)-methanone]
Ki [1]: 0.72 nM
Ki [2]: 0.61 nM
IC50 ([3]; first HCT-116 column (c4)): 45 nM
IC50 ([3]; second HCT-116 column (c5)): 250 nM

Compound: Nc1nc(NC2CCN(S(=O)(=O)CCn3cccc3)CC2)sc1C(=O)c1c(F)cccc1F [Example K34, {4-Amino-2-[1-(2-pyrrol-1-yl-ethanesulfonyl)-piperidin-4-ylamino]-thiazol-5-yl}-(2,6-difluoro-phenyl)-methanone Trifluoroacetic Acid Salt.]
Ki [1]: 6 nM
Ki [2]: 5.4 nM
IC50 ([3]; first HCT-116 column (c4)): 280 nM
IC50 ([3]; second HCT-116 column (c5)): 1200 nM

Compound: CN(C)CCCOc1ccc(S(=O)(=O)N2CCC(Nc3nc(N)c(C(=O)c4c(F)cccc4F)s3)CC2)cn1 [Example H15, 1-(4-Amino-2-{1-[6-(3-dimethylamino-propoxy)-pyridine-3-sulfonyl]-piperidin-4-ylamino}-thiazol-5-yl)-1-(2,6-difluoro-phenyl)-methanone Hydrochloride]
Ki [1]: 0.64 nM
Ki [2]: 0.34 nM
IC50 ([3]; first HCT-116 column (c4)): 71 nM
IC50 ([3]; second HCT-116 column (c5)): 500 nM

Compound: Nc1nc(NC2CCN(S(=O)(=O)c3ccc(Oc4ccncc4)cc3)CC2)sc1C(=O)c1c(F)cccc1F [Example P85]
CDK2 % Inhibition at 0.03 μM ([1]; 0.03 μM compound, Table 3): −28%
CDK4 % Inhibition at 0.03 μM ([2]; 0.03 μM compound, Table 3): 14%
HCT-116 % Inhibition at 0.1 μM [3, 4]: 12%
HCT-116 % Inhibition at 0.25 μM ([3]; HCT-116, Table 3): 26%

Compound: CN(C)CCN(C)c1ccc(S(=O)(=O)N2CCC(Nc3nc(N)c(C(=O)c4c(F)cccc4F)s3)CC2)cn1 [Example G1, Trifluoroacetic Acid Salt]
Ki [1]: 1.4 nM
Ki [2]: 0.64 nM
IC50 ([3]; first HCT-116 column (c4)): 120 nM
IC50 ([3]; second HCT-116 column (c5)): > 500 nM

Compound: CC(=O)c1cccc(NC(=O)N2CCC(Nc3nc(N)c(C(=O)c4c(F)cccc4F)s3)CC2)c1 [Example O47]
CDK2 % Inhibition At 0.03 μM ([1]; 0.03 μM compound): 35%
CDK4 % Inhibition at 0.03 μM ([2]; 0.03 μM compound, Table 2): 14%
HCT-116 % Inhibition at 0.25 μM ([3]; HCT-116, Table 2): 35%

Now from value to compound, other results behind:

CDK2 % Inhibition at 0.03 μM ([1]; at 0.03 μM): 24%
CDK4 % Inhibition at 0.03 μM ([2]; at 0.03 μM): 39%
Compound: COC(=O)c1ccc(C(=O)N2CCC(Nc3nc(N)c(C(=O)c4c(F)cccc4F)s3)CC2)cc1 [Example R151]
HCT-116 % Inhibition at 0.1 μM ([3]; HCT-116 cells, at 0.1 μM): 0%
HCT-116 5 Inhibition at 0.25 μM ([3]; HCT-116 cells): 43

CDK2 % Inhibition at 0.03 μM ([1]; at 0.03 μM): 57%
CDK4 % Inhibition at 0.03 μM ([2]; at 0.03 μM): 59%
Compound: CS(=O)(=O)c1csc(C(=O)N2CCC(Nc3nc(N)c(C(=O)c4c(F)cccc4F)s3)CC2)c1Cl [Example R72]
HCT-116 % Inhibition at 0.1 μM ([3]; HCT-116 cells, at 0.1 μM): 6%
HCT-116 5 Inhibition at 0.25 μM ([3]; HCT-116 cells): 43

CDK2 % Inhibition at 0.03 μM ([1]; 0.03 μM compound, Table 4): 9%
CDK4 % Inhibition at 0.03 μM ([2]; 0.03 μM compound, Table 4): 20%
Compound: Nc1nc(NC2CCN(C(=O)COCc3ccccc3)CC2)sc1C(=O)c1c(F)cccc1F [Example Q75]
HCT-116 % Inhibition at 0.1 μM [3, 5]: 5%
HCT-116 % Inhibition at 0.25 μM ([3]; HCT-116, Table 4): 39%

CDK2 % Inhibition at 0.03 μM ([1]; at 0.03 μM): 9%
CDK4 % Inhibition at 0.03 μM ([2]; at 0.03 μM): 19%
Compound: CCC(CC)C(=O)N1CCC(Nc2nc(N)c(C(=O)c3c(F)cccc3F)s2)CC1 [Example R164]
HCT-116 % Inhibition at 0.1 μM ([3]; HCT-116 cells, at 0.1 μM): 0%
HCT-116 5 Inhibition at 0.25 μM ([3]; HCT-116 cells): 41

CDK2 % Inhibition at 0.03 μM ([1]; 0.03 μM compound, Table 4): 24%
CDK4 % Inhibition at 0.03 μM ([2]; 0.03 μM compound, Table 4): 42%
Compound: CCOC(=O)CCC(=O)N1CCC(Nc2nc(N)c(C(=O)c3c(F)cccc3F)s2)CC1 [Example Q50]
HCT-116 % Inhibition at 0.1 μM [3, 5]: 7%
HCT-116 % Inhibition at 0.25 μM ([3]; HCT-116, Table 4): 39%

CDK2 % Inhibition at 0.03 μM ([1]; at 0.03 μM): 6%
CDK4 % Inhibition at 0.03 μM ([2]; at 0.03 μM): −4%
Compound: CCCCC(CC)C(=O)N1CCC(Nc2nc(N)c(C(=O)c3c(F)cccc3F)s2)CC1 (stereo not drawn) [Example R168]
HCT-116 % Inhibition at 0.1 μM ([3]; HCT-116 cells, at 0.1 μM): 0%
HCT-116 5 Inhibition at 0.25 μM ([3]; HCT-116 cells): 42
